In ChEMBL document CHEMBL3865783, “Synthesis and antimicrobial activity against Pseudomonas aeruginosa of macrocyclic β-hairpin peptidomimetic antibiotics containing N-methylated amino acids” (Bioorg Med Chem, 2016):

Legend:
[1] = biological target: T1, LPS-assembly protein LptD (Pseudomonas aeruginosa (strain ATCC 15692 / DSM 22644 / CIP 104116 /JCM 14847 / LMG 12228 / 1C / PRS 101 / PAO1)) (UniProt Q9I5U2); experiment: Inhibition of LptD in Pseudomonas aeruginosa PAO1 assessed as microbial growth inhibition by microbroth dilution method
T1 sequence (whole entry): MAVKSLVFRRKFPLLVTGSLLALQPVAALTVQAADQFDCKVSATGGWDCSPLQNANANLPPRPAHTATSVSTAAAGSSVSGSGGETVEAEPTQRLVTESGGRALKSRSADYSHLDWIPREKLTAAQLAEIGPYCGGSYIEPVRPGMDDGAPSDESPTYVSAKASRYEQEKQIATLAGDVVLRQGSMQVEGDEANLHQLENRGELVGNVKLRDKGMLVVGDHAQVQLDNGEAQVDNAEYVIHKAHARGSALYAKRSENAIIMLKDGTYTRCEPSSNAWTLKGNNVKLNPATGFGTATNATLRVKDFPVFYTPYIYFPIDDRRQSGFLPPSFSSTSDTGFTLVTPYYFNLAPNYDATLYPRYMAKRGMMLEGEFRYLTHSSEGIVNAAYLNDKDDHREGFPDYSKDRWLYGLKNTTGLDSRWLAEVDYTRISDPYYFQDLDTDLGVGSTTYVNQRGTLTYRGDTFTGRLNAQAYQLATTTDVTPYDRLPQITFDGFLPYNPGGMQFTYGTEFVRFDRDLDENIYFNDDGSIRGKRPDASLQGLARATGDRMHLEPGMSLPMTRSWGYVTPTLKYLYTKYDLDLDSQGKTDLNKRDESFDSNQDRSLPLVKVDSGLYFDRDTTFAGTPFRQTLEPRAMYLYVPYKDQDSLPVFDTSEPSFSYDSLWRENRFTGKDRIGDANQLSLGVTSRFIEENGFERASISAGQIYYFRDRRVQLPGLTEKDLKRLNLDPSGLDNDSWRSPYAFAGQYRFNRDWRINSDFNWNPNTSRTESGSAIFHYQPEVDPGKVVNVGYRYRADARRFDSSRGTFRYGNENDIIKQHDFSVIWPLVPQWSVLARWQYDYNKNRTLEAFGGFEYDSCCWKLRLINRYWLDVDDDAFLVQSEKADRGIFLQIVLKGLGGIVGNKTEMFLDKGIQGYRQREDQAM

[2] = tested on: Pseudomonas aeruginosa; experiment: Inhibition of LptD in Pseudomonas aeruginosa ATCC 27853 assessed as microbial growth inhibition by microbroth dilution method

SMILES	MIC [1] [µg/mL]	MIC [2] [µg/mL]
CC(C)C[C@@H]1NC(=O)[C@H](Cc2c[nH]c3ccccc23)NC(=O)[C@H]([C@@H](C)O)NC(=O)[C@@H]2CCCN2C(=O)[C@H]2CCCN2C(=O)[C@H](CCCCN)NC(=O)[C@H](C)NC(=O)[C@H](CCN)N(C)C(=O)[C@H](CCCN)NC(=O)[C@H](Cc2c[nH]c3ccccc23)NC(=O)[C@H](CCCNC(=N)N)NC(=O)[C@@H](CCCCN)NC(=O)[C@H](CCCN)NC(=O)[C@H](CCN)NC1=O	12	1
CC(C)C[C@@H]1NC(=O)[C@H](Cc2c[nH]c3ccccc23)NC(=O)[C@H]([C@@H](C)O)NC(=O)[C@@H]2CCCN2C(=O)[C@H]2CCCN2C(=O)[C@H](CCCCN)NC(=O)[C@H](C)NC(=O)[C@H](CCN)NC(=O)[C@H](CCCN)NC(=O)[C@H](Cc2c[nH]c3ccccc23)NC(=O)[C@H](CCCNC(=N)N)NC(=O)[C@@H](CCCCN)N(C)C(=O)[C@H](CCCN)NC(=O)[C@H](CCN)NC1=O	0.025	0.012
CC(C)C[C@@H]1NC(=O)[C@H](Cc2c[nH]c3ccccc23)N(C)C(=O)[C@H]([C@@H](C)O)NC(=O)[C@@H]2CCCN2C(=O)[C@H]2CCCN2C(=O)[C@H](CCCCN)NC(=O)[C@H](C)NC(=O)[C@H](CCN)NC(=O)[C@H](CCCN)NC(=O)[C@H](Cc2c[nH]c3ccccc23)NC(=O)[C@H](CCCNC(=N)N)NC(=O)[C@@H](CCCCN)NC(=O)[C@H](CCCN)NC(=O)[C@H](CCN)NC1=O	> 64	> 64
CC(C)C[C@@H]1NC(=O)[C@H](Cc2c[nH]c3ccccc23)NC(=O)[C@H]([C@@H](C)O)NC(=O)[C@@H]2CCCN2C(=O)[C@H]2CCCN2C(=O)[C@H](CCCCN)N(C)C(=O)[C@H](C)NC(=O)[C@H](CCN)NC(=O)[C@H](CCCN)NC(=O)[C@H](Cc2c[nH]c3ccccc23)NC(=O)[C@H](CCCNC(=N)N)NC(=O)[C@@H](CCCCN)NC(=O)[C@H](CCCN)NC(=O)[C@H](CCN)NC1=O	> 64	> 64
CC(C)C[C@@H]1NC(=O)[C@H](Cc2c[nH]c3ccccc23)NC(=O)[C@H]([C@@H](C)O)NC(=O)[C@@H]2CCCN2C(=O)[C@H]2CCCN2C(=O)[C@H](CCCCN)NC(=O)[C@H](C)NC(=O)[C@H](CCN)NC(=O)[C@H](CCCN)NC(=O)[C@H](Cc2c[nH]c3ccccc23)N(C)C(=O)[C@H](CCCNC(=N)N)NC(=O)[C@@H](CCCCN)NC(=O)[C@H](CCCN)NC(=O)[C@H](CCN)NC1=O	0.13	0.023
CC(C)C[C@@H]1NC(=O)[C@H](Cc2c[nH]c3ccccc23)NC(=O)[C@H]([C@@H](C)O)N(C)C(=O)[C@@H]2CCCN2C(=O)[C@H]2CCCN2C(=O)[C@H](CCCCN)NC(=O)[C@H](C)NC(=O)[C@H](CCN)NC(=O)[C@H](CCCN)NC(=O)[C@H](Cc2c[nH]c3ccccc23)NC(=O)[C@H](CCCNC(=N)N)NC(=O)[C@@H](CCCCN)NC(=O)[C@H](CCCN)NC(=O)[C@H](CCN)NC1=O	0.38	0.19
CC(C)C[C@@H]1NC(=O)[C@H](Cc2c[nH]c3ccccc23)NC(=O)[C@H]([C@@H](C)O)NC(=O)[C@@H]2CCCN2C(=O)[C@H]2CCCN2C(=O)[C@H](CCCCN)NC(=O)[C@H](C)N(C)C(=O)[C@H](CCN)NC(=O)[C@H](CCCN)NC(=O)[C@H](Cc2c[nH]c3ccccc23)NC(=O)[C@H](CCCNC(=N)N)NC(=O)[C@@H](CCCCN)NC(=O)[C@H](CCCN)NC(=O)[C@H](CCN)NC1=O	> 64	> 64
CC(C)C[C@@H]1NC(=O)[C@H](Cc2c[nH]c3ccccc23)NC(=O)[C@H]([C@@H](C)O)NC(=O)[C@@H]2CCCN2C(=O)[C@H]2CCCN2C(=O)[C@H](CCCCN)NC(=O)[C@H](C)NC(=O)[C@H](CCN)NC(=O)[C@H](CCCN)N(C)C(=O)[C@H](Cc2c[nH]c3ccccc23)NC(=O)[C@H](CCCNC(=N)N)NC(=O)[C@@H](CCCCN)NC(=O)[C@H](CCCN)NC(=O)[C@H](CCN)NC1=O	16	12
CC(C)C[C@@H]1NC(=O)[C@H](Cc2c[nH]c3ccccc23)NC(=O)[C@H]([C@@H](C)O)NC(=O)[C@@H]2CCCN2C(=O)[C@H]2CCCN2C(=O)[C@H](CCCCN)NC(=O)[C@H](C)NC(=O)[C@H](CCN)NC(=O)[C@H](CCCN)NC(=O)[C@H](Cc2c[nH]c3ccccc23)NC(=O)[C@H](CCCNC(=N)N)NC(=O)[C@@H](CCCCN)NC(=O)[C@H](CCCN)NC(=O)[C@H](CCN)NC1=O	0.015	0.008
CC(C)C[C@@H]1NC(=O)[C@H](Cc2c[nH]c3ccccc23)NC(=O)[C@H]([C@@H](C)O)NC(=O)[C@@H]2CCCN2C(=O)[C@H]2CCCN2C(=O)[C@H](CCCCN)NC(=O)[C@H](C)NC(=O)[C@H](CCN)NC(=O)[C@H](CCCN)NC(=O)[C@H](Cc2c[nH]c3ccccc23)NC(=O)[C@H](CCCNC(=N)N)N(C)C(=O)[C@@H](CCCCN)NC(=O)[C@H](CCCN)NC(=O)[C@H](CCN)NC1=O	0.75	0.38
CC(C)C[C@@H]1NC(=O)[C@H](Cc2c[nH]c3ccccc23)NC(=O)[C@H]([C@@H](C)O)NC(=O)[C@@H]2CCCN2C(=O)[C@H]2CCCN2C(=O)[C@H](CCCCN)NC(=O)[C@H](C)NC(=O)[C@H](CCN)NC(=O)[C@H](CCCN)NC(=O)[C@H](Cc2c[nH]c3ccccc23)NC(=O)[C@H](CCCNC(=N)N)NC(=O)[C@@H](CCCCN)NC(=O)[C@H](CCCN)NC(=O)[C@H](CCN)N(C)C1=O	0.009	0.005
CC(C)C[C@H]1C(=O)N[C@@H](CCN)C(=O)N[C@@H](CCCN)C(=O)N[C@H](CCCCN)C(=O)N[C@@H](CCCNC(=N)N)C(=O)N[C@@H](Cc2c[nH]c3ccccc23)C(=O)N[C@@H](CCCN)C(=O)N[C@@H](CCN)C(=O)N[C@@H](C)C(=O)N[C@@H](CCCCN)C(=O)N2CCC[C@@H]2C(=O)N2CCC[C@H]2C(=O)N[C@@H]([C@@H](C)O)C(=O)N[C@@H](Cc2c[nH]c3ccccc23)C(=O)N1C	> 64	> 64
CC(C)C[C@@H]1NC(=O)[C@H](Cc2c[nH]c3ccccc23)NC(=O)[C@H]([C@@H](C)O)NC(=O)[C@@H]2CCCN2C(=O)[C@H]2CCCN2C(=O)[C@H](CCCCN)NC(=O)[C@H](C)NC(=O)[C@H](CCN)NC(=O)[C@H](CCCN)NC(=O)[C@H](Cc2c[nH]c3ccccc23)NC(=O)[C@H](CCCNC(=N)N)NC(=O)[C@@H](CCCCN)NC(=O)[C@H](CCCN)N(C)C(=O)[C@H](CCN)NC1=O	0.008	0.009
